Values after ≈ are worked out from the molar mass of the structure shown.

Data on three compounds can be found in patent US5059597A, “7-(4-oxa or 4-thia-2,7-diazabicyclo[3.3.0]oct-2-en-3-yl)-3-quinolone-and-naphthyrido ne-carboxylic acid derivatives as antibacterial agents and feed additives” (Bayer Aktiengesellschaft, priority 1988, dated 1991).

Series [1] deals with Enterococcus faecalis 27101. The experiment in a line: MIC, agar dilution test (Denley multipoint inoculator; Iso-sensitest agar). It counts as cell-based. The following applies: Enterococcus faecalis 27101; 37° C., about 20 hours, about 10^4 colony-forming particles; read-out: MIC values. On the procedure:
(§1) The minimum inhibitory concentrations (MIC) were determined by the series dilution method on Iso-Sensitest agar (Oxoid). For each test substance, a series of agar plates which contained concentrations of the active compound which decreased by a dilution factor of two each time was prepared. The agar plates were inoculated with a multipoint inoculator (Denley). Overnight cultures of the pathogens which had first been diluted so that each inoculation point contained about 10^4 colony-forming particles were used for the inoculation. The inoculated agar plates were incubated at 37° C. and the germ growth was read off after about 20 hours. The MIC value (μg/ml) indicates the lowest active compound concentration at which no germ growth was to be detected with the naked eye.
(§2) The MIC values of some of the compounds according to the invention are shown in comparison with ciprofloxacin in the following table.
(§3) MIC values (mg/l) determined by the agar dilution
(§4) test (Denley multipoint inoculator; Iso-sensitest agar)
A general note: In agar dilution, organisms are placed on agar that contains the substance at set levels.

Series [2] deals with Enterococcus faecalis 9790. The series is described as above. It counts as cell-based. The following applies: Enterococcus faecalis 9790; 37° C., about 20 hours, about 10^4 colony-forming particles; read-out: MIC values. How it is done: as §1, §2, §3, §4
Series [3] concerns Escherichia coli Neumann. The description is as above. It counts as cell-based. The following applies: 37° C., about 20 hours, about 10^4 colony-forming particles. How it is done:
as §1, §2, §3, §4

The subject of series [4] is Morganella morganii 932. The series is described as above. It counts as cell-based. The following applies: 37° C., about 20 hours, about 10^4 colony-forming particles. How it is done:
as §1, §2, §3, §4

In series [5] the test system is Proleus mirabilis 8223. The series is described as above. Type of series: cell-based. The following applies: 37° C., about 20 hours, about 10^4 colony-forming particles. How it is done: as §1, §2, §3, §4
Series [6] deals with Proleus vulgaris 1017. The description is as above. It counts as cell-based. The following applies: 37° C., about 20 hours, about 10^4 colony-forming particles. How it is done:
as §1, §2, §3, §4

Series [7] concerns Providencia stuartei 12052. The series is described as above. Type of series: cell-based. The following applies: 37° C., about 20 hours, about 10^4 colony-forming particles. On the procedure:
as §1, §2, §3, §4

For series [8], the system named is Staphylococcus aureus 133. The series is described as above. It counts as cell-based. To be noted: Staphylococcus aureus 133; 37° C., about 20 hours, about 10^4 colony-forming particles; read-out: MIC values. How it is done: as §1, §2, §3, §4
The subject of series [9] is Staphylococcus aureus 1756. The description is as above. It counts as cell-based. To be noted: Staphylococcus aureus 1756; 37° C., about 20 hours, about 10^4 colony-forming particles; read-out: MIC values. On the procedure: as §1, §2, §3, §4
The subject of series [10] is Staphylococcus aureus FK 422. The description is as above. It counts as cell-based. The following applies: FK422; Staphylococcus aureus FK 422; 37° C., about 20 hours, about 10^4 colony-forming particles; read-out: MIC values. On the procedure: as §1, §2, §3, §4
A short description of series [11]: Solubility in water. To be noted: mesylate salt. It counts as physicochemical.

In the case of `CN1CCC2CN(c3cc4c(cc3F)c(=O)c(C(=O)O)cn4C3CC3)CC21` (stereo not drawn) [Example 17, 1-cyclopropyl-6-fluoro-1,4-dihydro-7-(2-methyl-2,7-diazabicyclo[3.3.0]oct-7-yl)-4-oxo-3-quinolinecarboxylic acid], the MIC was 1 µg/mL (≈ 2.69 µM) in [1]; 2 µg/mL (≈ 5.38 µM) in series [2]; 0.125 µg/mL (≈ 0.337 µM) in [3]; 0.5 µg/mL (≈ 1.35 µM) in series [4]; 8 µg/mL (≈ 21.5 µM) in [5]; 0.5 µg/mL (≈ 1.35 µM) in series [6]. The minimal inhibitory concentration (MIC) amounted to 8 µg/mL (≈ 21.5 µM) in series [7], 0.5 µg/mL (≈ 1.35 µM) in series [8], 0.5 µg/mL (≈ 1.35 µM) in [9] and 0.5 µg/mL (≈ 1.35 µM) in series [10].

For `CN1CCC2CN(c3c(F)cc4c(=O)c(C(=O)O)cn(C5CC5)c4c3F)CC21` (stereo not drawn) [Example 18, 1-cyclopropyl-6,8-difluoro-1,4-dihydro-7-(2-methyl-2,7-diazabicyclo[3.3.0]oct-7-yl)-4-oxo-3-quinolinecarboxylic acid], the MIC in [1] came out at 0.25 µg/mL (≈ 0.642 µM); in [2] it was 0.5 µg/mL (≈ 1.28 µM); in series [3] it was 0.03 µg/mL (≈ 0.077 µM); in [4], 0.06 µg/mL (≈ 0.154 µM); in [5] it was 1 µg/mL (≈ 2.57 µM); in [6], 0.06 µg/mL (≈ 0.154 µM). Further, the minimal inhibitory concentration (MIC) in series [7] turned out to be 4 µg/mL (≈ 10.3 µM); in [8], 0.125 µg/mL (≈ 0.321 µM); in [9], 0.125 µg/mL (≈ 0.321 µM); in series [10], 0.125 µg/mL (≈ 0.321 µM).

As for `CS(=O)(=O)O.O=C(O)c1cn(C2CC2)c2c(F)c(N3CC4CCCNC4C3)c(F)cc2c1=O` (stereo not drawn) [Example 43A, 1-cyclopropyl-7-(2,8-diazabicyclo[4.3.0]non-8-yl)-6,8-difluoro-1,4-dihydro-4-oxo-3-quinolinecarboxylic acid mesylate], in [11], the solubility in water entry is reported as “readily soluble in water”.

Broadly, the MIC is the smallest concentration in the dilution series that meets the test's criterion for growth inhibition.
